{"source": "paper PMC3438169", "about": "(PLoS ONE, 2012)", "key": {"[1]": {"tested_on": "P. aeruginosa", "assay": "Broth microdilution susceptibility to argyrin B, P. aeruginosa strains", "type": "cell-based", "settings": "for Susceptibility to argyrin B: broth microdilution"}, "[2]": {"tested_on": "B. multivorans", "assay": "Broth microdilution susceptibility to argyrin B, B. multivorans strains", "type": "cell-based"}, "[3]": {"tested_on": "B. multivorans", "assay": "Resistant mutant selection, B. multivorans", "type": "cell-based", "settings": "Mueller-Hinton agar, 4 or 16 µg/ml argyrin B", "protocol": "Resistance frequencies were calculated as the number of CFU (mutants) on drug containing plates divided by the number of CFU plated. Whole genome sequencing was done as described previously. The fusA1 gene from P. aeruginosa was generated for sequencing in two parts, using primer pairs PAEFF1/PAEFR1: […]/[…] and EFF2/EFR1: […]/[…]. The fusA1 gene from B. multivorans was generated as a single band using BCEFGF1/BCEFGR1: […]/[…]. Nucleotide sequencing of the products was done by Agencourt (Beverly MA)."}, "[4]": {"tested_on": "Cox4-GFP labeled mitochondria", "assay": "Microscopy of mitochondrial morphology (Cox4-GFP)", "type": "cell-based, S. cerevisiae", "settings": "3× IC30 (10 µM on YPEG), 30 minutes, ethanol/glycerol", "protocol": "BY4741 cells containing a genomic COX4-GFP fusion where grown to mid-log phase in glucose and ethanol/glycerol media and incubated with the corresponding concentrations of compound for 30 minutes. Aliquots where spotted on microscopy slides and directly imaged on a Zeiss Axiovert 200Mot microscope equipped with a AxioCam MRm digital camera using the Plan-Neofluar 100×, 1.3 oil PH3 objective (Carl Zeiss, Feldbach, Switzerland). A z-stack consisting of 3 images spaced by […] in the filterset 38 (eGFP) channel and a phase-contrast image where acquired. False colors where applied to the GFP images (green) and phase contrast (blue) and the images merged into one plane and scaled to 8-bit. Representative, individual cells where selected and assembled into a panel using Adobe Photoshop (Adobe Systems Inc.)."}, "[5]": {"tested_on": "succinate dehydrogenase flavoprotein subunit (SDHA)", "assay": "Immunoblot of nuclear-encoded SDHA in HCT116 and RKO cells", "type": "cell-based, human", "settings": "4 days", "protocol": "Whole cell lysates were prepared using RIPA buffer (Cell Signaling Technology) supplemented with EDTA-free protease inhibitor cocktail (Roche Applied Science), cleared by centrifugation at 16,000× g for 10 min, normalized based on protein concentration (Bio-Rad protein assay), boiled in NuPAGE LDS sample buffer (Invitrogen) supplemented with 2% ß-mercaptoethanol, and separated on NuPAGE 4–12% Bis-Tris gels using MOPS running buffer (Invitrogen). Proteins were transferred to nitrocellulose membranes and probed with the following primary antibodies: rabbit polyclonal antibody against mEF-G1 (Sigma, HPA034765), rabbit monoclonal antibody against GAPDH (Cell Signaling Technology, 14C10), mouse monoclonal antibodies against COX2 (Invitrogen, A6404) or SDHA (MitoSciences, MS204). Immobilized primary antibodies were visualized using HRP-conjugated anti-rabbit or anti-mouse IgG (Millipore, AP307P and AP308P) and enhanced chemiluminescence (Pierce)."}, "[6]": {"tested_on": "recombinant human mEF-G1 S452L", "assay": "Biacore binding, human mEF-G1 S452L", "settings": "10, 20, 40 µM, HBS-P+ pH 7.4, 4% DMSO", "text": "GFM1 encoding the active site of EF-G1 (residues 36–751) was PCR amplified from pDONR221 constructs using primers (GGGGACAAGTTTGTACAAAAAAGCAGGCTTAATGTCTTCATCAGGGGTGATT, GGGGACCACTTTGTACAAGAAAGCTGGGTATTAGTTCTTGGCTTTTCC). P. aeroginosa fusA1 encoding full-length EF-G was PCR amplified from pET28a-PaEFG-Nhis using primers (GGGGACCACTTTGTACAAGAAAGCTGGGTATTATCAACCTTGTTTTTT, GGGGACAAGTTTGTACAAAAAAGCAGGCTTAATGGCCCGTACTACACCC). Purified PCR products were cloned into the pDONR221 vector using Gateway cloning and BP Clonase II (Invitrogen), shuttled into an E.coli protein expression vector for N-terminal tagging (Avitag-His6 vector) using LR Clonase II (Invitrogen), and verified by sequencing. Avitag-His6-hEF-G1 and Avitag-His6-PaEF-G constructs were transformed into BL21-AI cells (Invitrogen) and isolated single colonies were used to inoculate 5 ml cultures which were grown overnight at 37°C with shaking. […]. Briefly, protein was captured on column using binding buffer (50 mM Tris; pH 7.5, 300 mM NaCl, 20 mM imidazole, 10% glycerol), washed extensively with washing buffer (50 mM Tris; pH 7.5, 500 mM NaCl, 30 mM imidazole, 10% glycerol), and then eluted with elution buffer (50 mM Tris; pH 7.5, 500 mM NaCl, 250 mM imidazole, 10% glycerol). […]"}}, "note": "*1 amine or outer side, *2 acyl side, *3 side chain or, on linkers, in order; H or OH if unused. Where a SMILES comes first, the peptide text is derived from it. [ ]: non-standard residue; d: D form. dAla(ψthiazole) = C[C@@H](N[*:1])c1nc(C(=O)[*:2])cs1; Trp(4-OMe) = COc1cccc2[nH]cc(C[C@H](N)C(=O)O)c12; dAbu = CC[C@@H](N)C(=O)O; Dha = C=C(N)C(=O)O; Sar = CNCC(=O)O"}
{"smiles": "C=C1NC(=O)CN(C)C(=O)CNC(=O)[C@H](Cc2c[nH]c3cccc(OC)c23)NC(=O)[C@H](Cc2c[nH]c3ccccc23)NC(=O)c2csc(n2)[C@@H](C)NC(=O)[C@@H](CC)NC1=O", "note": "[argyrin B] (cyclo([dAbu][dAla(ψthiazole)]W[Trp(4-OMe)]G[Sar][Dha]))", "values": [{"measurement": "Susceptibility to argyrin B", "setting": "[1]; P. aeruginosa ATCC 12055 (parent of ATCC 35151)", "value": 8, "unit": "µg/mL"}, {"measurement": "Susceptibility to argyrin B", "setting": "[1]; P. aeruginosa ATCC 35151 (Z61), hypersensitive", "value": "0.125 to 0.25", "unit": "µg/mL"}, {"measurement": "Susceptibility to argyrin B", "setting": "[1]; P. aeruginosa CDA0055 (Z61, FusA1 S417L)", "value": 64, "unit": "µg/mL"}, {"measurement": "Susceptibility to argyrin B", "setting": "[1]; P. aeruginosa CDA0056 (Z61, FusA1 S459F)", "value": 8, "unit": "µg/mL"}, {"measurement": "Susceptibility to argyrin B", "setting": "[1]; P. aeruginosa CDA0061 (Z61, FusA L663Q)", "value": ">128", "unit": "µg/mL"}, {"measurement": "Susceptibility to argyrin B", "setting": "[1]; P. aeruginosa CDR0052 (K767, FusA1 T671A)", "value": ">128", "unit": "µg/mL"}, {"measurement": "Susceptibility to argyrin B", "setting": "[1]; P. aeruginosa CDR0054 (K767, FusA1 S459F)", "value": ">128", "unit": "µg/mL"}, {"measurement": "Susceptibility to argyrin B", "setting": "[1]; P. aeruginosa CDR0055 (K767, FusA1 S417L)", "value": ">128", "unit": "µg/mL"}, {"measurement": "Susceptibility to argyrin B", "setting": "[1]; P. aeruginosa CDR0056 (K767, FusA1 Y683C)", "value": ">128", "unit": "µg/mL"}, {"measurement": "Susceptibility to argyrin B", "setting": "[1]; P. aeruginosa CDR0057 (K767, FusA1 P486S)", "value": ">128", "unit": "µg/mL"}, {"measurement": "Susceptibility to argyrin B", "setting": "[1]; P. aeruginosa CDR0058 (K767, FusA1 P414S)", "value": ">128", "unit": "µg/mL"}, {"measurement": "Susceptibility to argyrin B", "setting": "[1]; P. aeruginosa K767 (PAO1, prototroph)", "value": 8, "unit": "µg/mL"}, {"measurement": "Sensitivity of mutants to argyrin B (in words)", "setting": "[1]; P. aeruginosa Z61 mutants with S417L and S459F substitutions", "value": "still partially sensitive"}, {"measurement": "Susceptibility to argyrin B", "setting": "[2]; B. multivorans CDA0079 (FusA1 P484R)", "value": ">32", "unit": "µg/mL"}, {"measurement": "Susceptibility to argyrin B", "setting": "[2]; B. multivorans CDA0080 (FusA1 S415L)", "value": ">32", "unit": "µg/mL"}, {"measurement": "Susceptibility to argyrin B", "setting": "[2]; B. multivorans CDA0093 (FusA1 S415W)", "value": ">32", "unit": "µg/mL"}, {"measurement": "Susceptibility to argyrin B", "setting": "[2]; B. multivorans CDA0094 (FusA1 L656P)", "value": ">32", "unit": "µg/mL"}, {"measurement": "Susceptibility to argyrin B", "setting": "[2]; B. multivorans NB49004 (clinical isolate)", "value": 1, "unit": "µg/mL"}, {"measurement": "frequency of argyrin B resistant mutants", "setting": "[3]", "value": "10^−9–10^−8"}, {"measurement": "Mitochondrial morphology (in words)", "setting": "[4]", "value": "mitochondrial morphology defects (fragmentation)"}, {"measurement": "SDHA protein level (in words)", "setting": "[5]; HCT116, 1 µM argyrin B", "value": "did not affect the levels"}, {"measurement": "SDHA protein level (in words)", "setting": "[5]; RKO, 1 µM argyrin B", "value": "did not affect the levels"}, {"measurement": "Binding to human mEF-G1 (in words)", "setting": "[6]", "value": "still bound"}]}
